A short description of test [1]: inhibitors of TNFa-induced E-selectin expression, confirmation, imaging, retest plus dose response, cell count (AID 1288). Particulars: human endothelial cells, TNFa-induced E-selectin, imaging; cell count toxicity; at 10 µM; stronger effect = lower value.
The test system of test [2] is human endothelial cells, TNFa-induced E-selectin, imaging. The description is as above.

The term IC50 denotes the concentration that gives 50% inhibition. A word on the pIC50: it is the negative decadic logarithm of the IC50, by convention in mol/L.

pIC50: −log10 of the molar value. The source made the active and inactive calls. No rule for the calls is given here.

`COc1cc(NC(=O)Cn2ncc(Cl)c(Cl)c2=O)c(C)cc1[N+](=O)[O-]`: the cell count in test [1] was determined as 90.1%. For the same compound, the IC50 in test [2] was > 10 µM (inactive).

With `CCCn1c(=NC(=O)c2ccco2)c(C(=O)OCC)cc2c(=O)n3ccccc3nc21`, in test [1], the cell count was 64.4%. Further, the pIC50 in test [2] was 5.36.

For the origin of these results see PubChem BioAssay AID1288 (Columbia University Molecular Screening Center, 2008).
